Patent US11000033B2, “Ketone or oxime compound, and herbicide” (NISSAN CHEMICAL CORPORATION, priority 2014, dated 2021)

Columns and labels:
Format in all cases: in vivo
rapeseed = test: Test Example 4: effect on crop by soil treatment (symbol g); details: application herbicide amount 320 g/ha
Method in brief: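 Plants are raised in a greenhouse (25° C. to 30° C.) from spot-sown seed, which sits under about 1.5 cm of sterilized diluvial soil in a box shared with weed species.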

Amaranthus retroflexus [1] = test: Test Example 5: herbicidal effect by foliage application, plastic box (symbol N); details: 320 g/ha, 3 weeks after application
Method in brief: (§1)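 Greenhouse foliar test: seedlings at 14 days, grown 25° C. to 30° C. in sterilized diluvial soil; compound applied as an aqueous dilution of an emulsion; response read 3 weeks after spraying.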

Alopecurus myosuroides = test: Test Example 5: herbicidal effect by foliage application, plastic box (symbol J); details: 320 g/ha, 3 weeks after application
Method in brief: as §1

Cyperus difformis = test: Test Example 3: herbicidal effect by foliage application, Wagner pot (symbol E); details: application herbicide amount 320 g/ha
Method in brief: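 Herbicidal activity was rated three weeks after a foliar spray of diluted emulsion concentrate, applied at a predetermined dose to plants grown for 14 days from seed in waterlogged alluvial soil within a 25–30 °C greenhouse.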

Monochoria vaginalis [2] = test: Test Example 1: herbicidal activity, application before weed generation in submerged conditions (symbol C); details: application herbicide amount 320 g/ha
Method in brief: (§2)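 Pre-emergence, paddy conditions: emulsifiable formulation diluted in water, dosed onto floodwater (4 cm depth) on sowing day. Alluvial soil; weeds sown mixed; rice transplanted at 2.5-leaf stage. Greenhouse 25–30 °C, 3 wk. Score 0–5 (5 = ≥90% kill, 0 = ≤5%).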

[3] = test system: Echinochloa oryzacola Vasing.; test: Test Example 1: herbicidal activity, application before weed generation in submerged conditions (symbol A); details: application herbicide amount 320 g/ha
Method in brief: as §2

Amaranthus retroflexus [4] = test: Test Example 4: herbicidal effect by soil treatment (symbol N); details: application herbicide amount 320 g/ha
Method in brief: (§3)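 Seeds were sown in sterilized diluvial soil, covered with about 1.5 cm of soil, and the soil surface was sprayed with a water-diluted emulsion of the compound at a predetermined rate. Plants grew in a greenhouse at 25° C. to 30° C.; effects were scored visually 3 weeks after application.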

[5] = test system: directly sowed rice plant; test: Test Example 3: effect on crop by foliage application, Wagner pot (symbol b); details: application herbicide amount 320 g/ha
Method in brief: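 Alluvial soil in a 1/10000-are Wagner pot was flooded to a water depth of 0.1–0.5 cm. Echinochloa crus-galli var. crus-galli, Leptochloa chinensis, Cyperus difformis and rice were sown into it and grown in a greenhouse at 25–30 °C.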

[6] = test system: Echinochloa crus-galli var. crus-galli; test: Test Example 5: herbicidal effect by foliage application, plastic box (symbol H); details: 320 g/ha, 3 weeks after application
Method in brief: as §1

Digitaria ciliaris = test: Test Example 4: herbicidal effect by soil treatment (symbol F); details: application herbicide amount 320 g/ha
Method in brief: as §3

Apera spica-venti = test: Test Example 4: herbicidal effect by soil treatment (symbol L); details: application herbicide amount 320 g/ha
Method in brief: as §3

Avena fatua = test: Test Example 5: herbicidal effect by foliage application, plastic box (symbol I); details: 320 g/ha, 3 weeks after application
Method in brief: as §1

Monochoria vaginalis [7] = test: Test Example 2: herbicidal activity, application during weed generation in submerged conditions (symbol C); details: Table 23; application herbicide amount 320 g/ha; grade 0-5 by criteria of Test Example 1
Method in brief: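 Visual herbicidal ratings, taken three weeks after dosing, reflect post-emergence water-surface application to seedlings at one to two leaves. Conditions: co-sown weeds in alluvial soil flooded to 4 cm, greenhouse held at 25° C. to 30° C.; compound given as water-diluted emulsion at a fixed herbicide amount.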

| Compound | g (rapeseed) effect on crop grade (rapeseed) | N: Amaranthus retroflexus, herbicidal effect grade (Amaranthus retroflexus [1]) | J: Alopecurus myosuroides, herbicidal effect grade (Alopecurus myosuroides) | herbicidal effect on E, grade 0-5 (Cyperus difformis) | Herbicidal effect grade, C: Monochoria vaginalis (Monochoria vaginalis [2]) | Herbicidal effect grade, A: Echinochloa oryzacola Vasing. [3] | N (Amaranthus retroflexus) herbicidal effect grade (Amaranthus retroflexus [4]) | effect on crop b (directly sowed rice plant), grade 0-5 [5] | H: Echinochloa crus-galli var. crus-galli, herbicidal effect grade [6] | F (Digitaria ciliaris) herbicidal effect grade (Digitaria ciliaris) | L (Apera spica-venti) herbicidal effect grade (Apera spica-venti) | I: Avena fatua, herbicidal effect grade (Avena fatua) | Herbicidal effect grade, C: Monochoria vaginalis (Monochoria vaginalis [7]) |
| --- | --- | --- | --- | --- | --- | --- | --- | --- | --- | --- | --- | --- | --- |
| CON=C(C)CC1CC(OC(=O)COc2ccc(OC)cc2)=C(c2c(C)cc(C)cc2C)C1=O (centres unmarked) [1-069] | 4 (Herbicidal ratio of 70% or higher and lower than 90%) | 5 (Herbicidal ratio of 90% or more (almost completely withered)) | 5 (Herbicidal ratio of 90% or more (almost completely withered)) | 5 (Herbicidal ratio of 90% or more (almost completely withered)) | 2 (Herbicidal ratio of 20% or higher and lower than 40%) | 5 (Herbicidal ratio of 90% or more (almost completely withered)) | 4 (Herbicidal ratio of 70% or higher and lower than 90%) | 5 (Herbicidal ratio of 90% or more (almost completely withered)) | 5 (Herbicidal ratio of 90% or more (almost completely withered)) | 5 (Herbicidal ratio of 90% or more (almost completely withered)) | 5 (Herbicidal ratio of 90% or more (almost completely withered)) | 5 (Herbicidal ratio of 90% or more (almost completely withered)) | 3 (Herbicidal ratio of 40% or higher and lower than 70%) |
| CON=C(C)CC1CC(OC(=O)C(C)(C)OC(C)=O)=C(c2c(C)cc(C)cc2C)C1=O (centres unmarked) [1-034] | 5 (Herbicidal ratio of 90% or more (almost completely withered)) | 3 (Herbicidal ratio of 40% or higher and lower than 70%) | 5 (Herbicidal ratio of 90% or more (almost completely withered)) | 5 (Herbicidal ratio of 90% or more (almost completely withered)) | 2 (Herbicidal ratio of 20% or higher and lower than 40%) | 5 (Herbicidal ratio of 90% or more (almost completely withered)) | 5 (Herbicidal ratio of 90% or more (almost completely withered)) | 5 (Herbicidal ratio of 90% or more (almost completely withered)) | 5 (Herbicidal ratio of 90% or more (almost completely withered)) | 5 (Herbicidal ratio of 90% or more (almost completely withered)) | 5 (Herbicidal ratio of 90% or more (almost completely withered)) | 5 (Herbicidal ratio of 90% or more (almost completely withered)) | 3 (Herbicidal ratio of 40% or higher and lower than 70%) |
| CON=C(C)CC1CC(OC(=O)C(C)(C)F)=C(c2c(C)cc(C)cc2C)C1=O (centres unmarked) [1-039] | 4 (Herbicidal ratio of 70% or higher and lower than 90%) | 4 (Herbicidal ratio of 70% or higher and lower than 90%) | 5 (Herbicidal ratio of 90% or more (almost completely withered)) | 5 (Herbicidal ratio of 90% or more (almost completely withered)) | 2 (Herbicidal ratio of 20% or higher and lower than 40%) | 5 (Herbicidal ratio of 90% or more (almost completely withered)) | 5 (Herbicidal ratio of 90% or more (almost completely withered)) | 5 (Herbicidal ratio of 90% or more (almost completely withered)) | 5 (Herbicidal ratio of 90% or more (almost completely withered)) | 5 (Herbicidal ratio of 90% or more (almost completely withered)) | 5 (Herbicidal ratio of 90% or more (almost completely withered)) | 5 (Herbicidal ratio of 90% or more (almost completely withered)) | 3 (Herbicidal ratio of 40% or higher and lower than 70%) |
| CON=C(CC1CC(OC(=O)COc2ccccc2)=C(c2c(C)cc(C)cc2C)C1=O)C1CC1 (centres unmarked) [1-063] | 0 (Herbicidal ratio of 5% or lower (almost no effect)) | 0 (Herbicidal ratio of 5% or lower (almost no effect)) | 5 (Herbicidal ratio of 90% or more (almost completely withered)) | 5 (Herbicidal ratio of 90% or more (almost completely withered)) | 0 (Herbicidal ratio of 5% or lower (almost no effect)) | 5 (Herbicidal ratio of 90% or more (almost completely withered)) | 0 (Herbicidal ratio of 5% or lower (almost no effect)) | 5 (Herbicidal ratio of 90% or more (almost completely withered)) | 5 (Herbicidal ratio of 90% or more (almost completely withered)) | 5 (Herbicidal ratio of 90% or more (almost completely withered)) | 5 (Herbicidal ratio of 90% or more (almost completely withered)) | 5 (Herbicidal ratio of 90% or more (almost completely withered)) | 0 (Herbicidal ratio of 5% or lower (almost no effect)) |
| CON=C(C)CC1CC(OC(=O)C(C)Oc2ccccc2)=C(c2c(C)cc(C)cc2C)C1=O (centres unmarked) [1-060] | 3 (Herbicidal ratio of 40% or higher and lower than 70%) | 0 (Herbicidal ratio of 5% or lower (almost no effect)) | 5 (Herbicidal ratio of 90% or more (almost completely withered)) | 5 (Herbicidal ratio of 90% or more (almost completely withered)) | 3 (Herbicidal ratio of 40% or higher and lower than 70%) | 5 (Herbicidal ratio of 90% or more (almost completely withered)) | 5 (Herbicidal ratio of 90% or more (almost completely withered)) | 5 (Herbicidal ratio of 90% or more (almost completely withered)) | 5 (Herbicidal ratio of 90% or more (almost completely withered)) | 5 (Herbicidal ratio of 90% or more (almost completely withered)) | 5 (Herbicidal ratio of 90% or more (almost completely withered)) | 5 (Herbicidal ratio of 90% or more (almost completely withered)) | 0 (Herbicidal ratio of 5% or lower (almost no effect)) |
